Source: patent US20260034042A1, “Composition with Improved SPF and UVA Photoprotection” (Symrise AG, priority 2022, published 2026)

Legend:
Type in all cases: physicochemical
[1] = Determination of the in-vitro SPF on PMMA plates (Labsphere UV-200S, Colipa method)
Description: (§1) Determination of the in-vitro SPFs and UVA-PF
(§2) The SPF boosting and UVA-PF boosting test is carried out as in-vitro determination of SPFs.
(§3) Principle: The formulation to be tested (emulsion, solution) is weighed on PMMA plates with the help of an analytical balance. The formulation if distributed and incorporated on the plate using a method corresponding to the formulation. The thus prepared plates are then measured on a Labsphere device and the results are calculated as SPF with a suitable software.
(§4) PMMA plates (Polymethylmethacrylate), measuring 3 cm×8.5 cm (WVVW5 plates based on […] “Determination of UVA photoprotection in vitro” with 5μ roughness by Schonberg GmbH & Co. AG) are used to perform an SPF measurement.
(§5) A reference sample is obtained by distributing 25 to 28 mg glycerin (99.5%) with the index finger on the roughened side of the PMMA plate. The glycerin film must be very thin and uniform. Subsequently, this plate is stored for at least 2 hours.
(§6) The reference plate is measured with the following transmission values:
(§7) The sample to be measured should be homogeneously mixed with a spatula before application. 1.2 mg/cm2 of sample is evenly distributed in several rows of dots on the PMMA plate. In order to minimise the evaporation of the sample during weighing, this process must be carried out quickly. The sample is then evenly distributed by hand with a finger previously saturated with the sample material. The distribution takes place in two phases: • Phase 1: Fast and uniform distribution with a slight pressure until the emulsion is broken. • Phase 2: The sample is massaged into the rough surface with strong pressure and the process should last 30 seconds. In this context under strong pressure means that when massaged on a scale, this indicates at least […].
(§8) Sun oils: The product quantity is generally 1.3 mg/cm^2. For strongly spreading oils, less product is applied, as the amount of oil cannot be “absorbed” from the plate. Then the amount of application should be reduced to 1.0-0.75 mg/cm^2. Application method here is also the 30 s fast/light and 30 s strong method. • Sun sprays: The “30/30 method” applies here (especially for thicker sprays). • For very liquid sprays (similar to water): • Fast and uniform distribution with a slight pressure, until the emulsion “breaks”. • The process should take 45 s.
(§9) The finished sample plates are stored dust-free and measured at the earliest after 15 minutes.
(§10) The samples are measured using the UV-200S device, using the specified Colipa method. The Labsphere user manual also applies.
(§11) A new “Study” is opened via File and then the “Colipa Guideline 2011” method is selected under the heading “Study”. In the new window “Colipa Method Options” the number of plates (3 plates), the measuring points per plate (5 measuring points) and the in vivo SPF and, if necessary, the irradiance intensity of the external irradiance device (Solar Simulator Irradiance) entered. • The irradiance set on the external device is 765 W/m2 as standard. The complete naming of the sample is done via Study”, “Study Information”.
At the beginning of the measurement, a blank value of the glycerin reference sample is measured (“scan blank plate”). In order to determine the SPF of a sample, a total of 15 measuring points (3 plates of 5 measuring points) are then created (“Scan Location”).
• After the first measurement run, the device calculates an irradiation dose (Irradiation Dose/J/cm2) and the duration (exposure time) for each plate. The plates are irradiated in the external irradiation device (irradiation duration=average value of the 3 plates).
The calculation of irradiation dose and exposure time is based on the irradiance (765 W/m^2) set on the external device. […]

[2] = Determination of the in-vitro UVA-PF on PMMA plates (Labsphere UV-200S, Colipa method, post irradiation)
Description: UVA-photoprotection is expressed in UVA-protection factor (UVA-PF). UVA-PF is similar to SPF in that it is a measure of how well a sunscreen protects the skin from UVA radiation. It is performed in a similar manner by irradiating the skin with UVA. This can be done in vivo with human skin or in vitro, where it is performed by applying the sunscreen to an PMMA plate (Polymethymethacrylate plate) and measuring how much UVA passes through the slide with or without the sunscreen. To characterize protection from UVA radiation, the PPD (Persistent Pigment Darkening) method, which measures the color of the skin observed 2 to 4 hours after exposure of the skin to UVA radiation, is used. The PPD method appears to correlate well with the in vitro UVA-PF testing.
as §1, §2, §3, §4, §5, §6, §7, §8, §9, §10, §11
(§12) At the beginning of the measurement, a blank value of the glycerin reference sample is measured (“scan blank plate”). […]

[3] = Critical wavelength of the sunscreen formulation (post irradiation)
From the text: The term “broad-spectrum photo-protection” means photo-protection from both UVA and UVB radiation. Broad-spectrum is based on the breadth of protection offered by a sunscreen in the UVA and UVB spectrums. In order for a sunscreen to be considered broad-spectrum, it must have achieved a critical wavelength of at least 370 nm, meaning that 10% of the protection that the sunscreen offers has to be for wavelengths above 370 nm. A critical wavelength>370 nm is a rigorous minimum that sunscreen products should achieve to be labelled as broad-spectrum”.
The term “critical wavelength” is defined as the wavelength at which the area under the UV protection curve (% protection versus wavelength) represents 90% of the total area under the curve in the UV region (280-400 nm). […]
In order to calculate the critical wavelength (λc), mathematical integration of the measured spectral absorbance from […] to 400 nm is performed to calculate the area beneath the absorbance curve. The critical wavelength value is based upon the inherent shape and breadth of the absorbance cure, not its amplitude. The critical wavelength is the wavelength below which 90% of the area under the absorbance curve sides. […]
The samples are measured using the UV-200S device, using the specified Colipa method. […]
as §12

[4] = 1.0% by weight added to sunscreen with modern organic UV-filter mixture (Example 1; control SPF 31.7)
[5] = 1.0% by weight, classic organic UV-filter combination (Example 3)
[6] = 1.0% by weight, classic organic UV-filter combination (Example 3; control SPF 33.7)
[7] = 1.0% by weight, modern organic UV-filter mixture (Example 1)
[8] = 3.0% by weight added to sunscreen with modern organic UV-filter mixture (Example 1; control SPF 31.7)
[9] = 3.0% by weight, classic organic UV-filter combination (Example 3)
[10] = 3.0% by weight, classic organic UV-filter combination (Example 3; control SPF 33.7)
[11] = 3.0% by weight, modern organic UV-filter mixture (Example 1)
[12] = 3.0%, modern organic UV-filter mixture (Example 1)

Row | critical wavelength ([3]; 1.0% and 3.0%, classic sunscreen composition (Example 3; without MAA 380 nm)) | critical wavelength ([3]; 3.0%, modern sunscreen composition (Example 1; without MAA 378 nm)) | SMILES | in vitro SPF [1, 4] | in vitro SPF higher than reference sample without MAA [1, 5] | in vitro SPF [1, 6] | in vitro SPF higher than reference sample without MAA [1, 7] | in vitro SPF [1, 8] | in vitro SPF higher than reference sample without MAA [1, 9] | in vitro SPF [1, 10] | in vitro SPF higher than reference sample without MAA [1, 11] | improvement of the UVA-PF compared to the control sample ([2]; 1.0%, classic organic UV-filter combination (Example 3)) | improvement of the UVA-PF compared to the control sample ([2]; 1.0%, modern organic UV-filter mixture (Example 1)) | improvement of the UVA-PF compared to the control sample ([2]; 3.0%, classic organic UV-filter combination (Example 3)) | improvement of the UVA-PF compared to the control sample [2, 12] | in vitro SPF higher than control/reference sample without MAA ([1]; 1.0% by weight, modern organic UV-filter mixture of Example 2) | in vitro SPF ([1]; 1.0% by weight, modern organic UV-filter mixture of Example 2 (control SPF 52.4)) | improvement of the UVA-PF compared to the control sample ([2]; 1.0%, modern organic UV-filter mixture of Example 2)
1 | 381 nm | 379 nm | COc1ccc(/N=C2\CC(C)(C)CC3=C2SCC(C(=O)O)N3)cc1OC (centres unmarked) [MAA-13, 8-((3,4-dimethoyxphenyl)imino)-6,6-dimethyl-3,4,5,6,7,8-hexahydro-2-H-benzol[b][1,4]thiazine-3-carboxylic acid] | 34.4 | 7.7% | 36.3 | 8.52% | 39.8 | 87.2% | 63.1 | 25.6% | 3.2% | 14.8% | 5.2% | 30.75% | – | – | –
2 | – | – | CCOC(=O)CNC1=C/C(=N/c2ccccc2)CC(C)(C)C1 [MAA-1, ethyl 2-[[5,5-dimethyl-3-phenylimino-cyclohexen-1-yl]amino]acetate] | 53.4 | 5.0% | 35.4 | 68.5% | 86.1 | 61.4% | 54.4 | 171.6% | – | – | – | 9.35% | – | – | –
3 | – | – | CC1(C)CC(NCC(=O)O)=C/C(=N/c2ccccc2)C1 [MAA-20, 2-[(5,5-dimethyl-3-phenylimino-cyclohexen-1-yl)amino]acetic acid] | – | – | – | – | – | – | – | – | – | – | – | – | 9% | 57.1 | 18.2%
